Test results as given in the supplement of paper PMC5908809.

Assays:
NK-YS (IL-2 2.5 ng/mL) [1] = experiment: percent inhibition of viability; higher = more inhibition; details: 72 h
[2] = system: normal primary NK cells, pool 1 (3 donors) (IL-2 2.5 ng/mL); experiment: as above; details: 72 h
[3] = system: normal primary NK cells, pool 3 (3 donors) (IL-2 2.5 ng/mL); experiment: as above; details: 72 h
NKL (IL-2 2.5 ng/mL) [4] = experiment: as above; details: 72 h
DERL-7 (IL-2 2.5 ng/mL) [5] = experiment: as above; details: 72 h
IMC-1 (IL-2 20 ng/mL) [6] = experiment: as above; details: 72 h
[7] = system: normal primary NK cells, pool 2 (3 donors) (IL-2 2.5 ng/mL); experiment: as above; details: 72 h
KAI3 (IL-2 2.5 ng/mL) [8] = experiment: as above; details: 72 h
[9] = system: normal primary NK cells, pool 1 (3 donors), resting (IL-2 0 ng/mL); experiment: as above; details: 72 h
YT (IL-2 2.5 ng/mL) [10] = experiment: as above; details: 72 h
NK-92 (IL-2 2.5 ng/mL) [11] = experiment: as above; details: 72 h
SNK-6 (IL-2 2.5 ng/mL) [12] = experiment: as above; details: 72 h
KHYG-1 (IL-2 2.5 ng/mL) [13] = experiment: as above; details: 72 h
[14] = system: normal NK cells expanded with K562-aAPC; experiment: drug sensitivity score (DSS) (DSS units); higher = more sensitive; extreme values may be limits of the assay; details: 72 h; IL-2 2.5 ng/mL
Description: (§1)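 Drug sensitivity and resistance testing on K562-aAPC-expanded normal NK cells: 5 concentrations (10-fold steps over a 10,000-fold range), 72 h at 37 °C, viability by CellTiter-Glo normalised to DMSO and benzethonium chloride controls; DSS from the fitted curve.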

NK-YS (IL-2 2.5 ng/mL) [15] = experiment: as above; details: 72 h
[16] = system: normal primary NK cells, pool 1 (3 donors) (IL-2 2.5 ng/mL); experiment: as above; details: 72 h
[17] = system: normal primary NK cells, pool 3 (3 donors) (IL-2 2.5 ng/mL); experiment: as above; details: 72 h
NKL (IL-2 2.5 ng/mL) [18] = experiment: as above; details: 72 h
DERL-7 (IL-2 2.5 ng/mL) [19] = experiment: as above; details: 72 h
IMC-1 (IL-2 20 ng/mL) [20] = experiment: as above; details: 72 h
[21] = system: normal primary NK cells, pool 2 (3 donors) (IL-2 2.5 ng/mL); experiment: as above; details: 72 h
KAI3 (IL-2 2.5 ng/mL) [22] = experiment: as above; details: 72 h
[23] = system: normal primary NK cells, pool 1 (3 donors), resting (IL-2 0 ng/mL); experiment: as above; details: 72 h
YT (IL-2 2.5 ng/mL) [24] = experiment: as above; details: 72 h
NK-92 (IL-2 2.5 ng/mL) [25] = experiment: as above; details: 72 h
SNK-6 (IL-2 2.5 ng/mL) [26] = experiment: as above; details: 72 h
KHYG-1 (IL-2 2.5 ng/mL) [27] = experiment: as above; details: 72 h
[28] = system: normal NK cells expanded with K562-aAPC; experiment: percent inhibition of viability; higher = more inhibition; details: 72 h, IL-2 2.5 ng/mL
Description: as §1

O=C(Nc1ccc(OC(F)(F)F)cc1)c1sccc1NCc1ccnc2ccccc12 [OSI-930] (max concentration tested 2500 nM)
percent inhibition of viability [%]
Details	0.25 nM	2.5 nM	25 nM	250 nM	2500 nM
DERL-7 (IL-2 2.5 ng/mL) [5]	-3.26	4.29	2.35	12.1	10.2
IMC-1 (IL-2 20 ng/mL) [6]	0.84	-1.87	4.98	6.89	18.2
KAI3 (IL-2 2.5 ng/mL) [8]	3.63	-6.37	-2.54	-7.75	4.42
KHYG-1 (IL-2 2.5 ng/mL) [13]	0.6	1.74	3.75	5.69	7.1
NK-92 (IL-2 2.5 ng/mL) [11]	3.89	-3.38	-8.56	11.8	16.6
NK-YS (IL-2 2.5 ng/mL) [1]	-1.68	-3.28	-0.75	3.05	10.1
NKL (IL-2 2.5 ng/mL) [4]	-6.01	-14.6	-5.82	-10.2	7.79
SNK-6 (IL-2 2.5 ng/mL) [12]	2.35	8.65	27.3	16.9	25.4
YT (IL-2 2.5 ng/mL) [10]	-0.61	-3.29	0.94	1	10.3
[2]	-1.64	6.46	-0.65	1.58	5.43
[3]	-8.79	-12.1	-5.29	4.46	8.54
[7]	-8.8	-7.72	0	7.78	8.04
[9]	-4.47	-4.58	-9.07	4.32	12.1
[28]	0.01	-3.72	-1.42	0.82	7.54

Details	drug sensitivity score
DERL-7 (IL-2 2.5 ng/mL) [19]	0.66
IMC-1 (IL-2 20 ng/mL) [20]	0.67
KAI3 (IL-2 2.5 ng/mL) [22]	0
KHYG-1 (IL-2 2.5 ng/mL) [27]	0
NK-92 (IL-2 2.5 ng/mL) [25]	1.27
NK-YS (IL-2 2.5 ng/mL) [15]	0
NKL (IL-2 2.5 ng/mL) [18]	0
SNK-6 (IL-2 2.5 ng/mL) [26]	8.62
YT (IL-2 2.5 ng/mL) [24]	0
[14]	0
[16]	0
[17]	0
[21]	0
[23]	0.24

CNC(=O)c1cc(COc2nnc(Nc3ccc(Cl)cc3)c3ccoc23)ccn1 [Telatinib] (max concentration tested 10000 nM)
percent inhibition of viability [%]
Details	1 nM	10 nM	100 nM	1000 nM	10000 nM
DERL-7 (IL-2 2.5 ng/mL) [5]	-7.49	-0.52	-1.32	7.55	16.5
IMC-1 (IL-2 20 ng/mL) [6]	-1.29	6.77	10.7	6.73	6.92
KAI3 (IL-2 2.5 ng/mL) [8]	-1.15	-3.17	-1.98	4.4	17.6
KHYG-1 (IL-2 2.5 ng/mL) [13]	-4.25	1.6	0.07	3.62	17.2
NK-92 (IL-2 2.5 ng/mL) [11]	-14.3	7.86	8.96	9.44	25.7
NK-YS (IL-2 2.5 ng/mL) [1]	-3.24	-3.74	3.78	6.85	18
NKL (IL-2 2.5 ng/mL) [4]	4.45	8.77	17.6	24.9	37.5
SNK-6 (IL-2 2.5 ng/mL) [12]	-6.76	-18.2	-10.9	-17.2	39.8
YT (IL-2 2.5 ng/mL) [10]	-6.03	-1.57	0.93	8.01	8.35
[2]	-11.3	3.32	6.19	3.83	4.17
[3]	-12.1	2.04	1.9	-5.46	-0.21
[7]	-8.51	7.4	6.24	-6.6	-0.18
[9]	-33.8	-3.86	0.16	-3.05	3.2
[28]	-1.26	-3.44	0.95	10.9	8.85

Details	drug sensitivity score
DERL-7 (IL-2 2.5 ng/mL) [19]	1
IMC-1 (IL-2 20 ng/mL) [20]	0.48
KAI3 (IL-2 2.5 ng/mL) [22]	0.91
KHYG-1 (IL-2 2.5 ng/mL) [27]	0.8
NK-92 (IL-2 2.5 ng/mL) [25]	1.85
NK-YS (IL-2 2.5 ng/mL) [15]	0.7
NKL (IL-2 2.5 ng/mL) [18]	7.2
SNK-6 (IL-2 2.5 ng/mL) [26]	1.33
YT (IL-2 2.5 ng/mL) [24]	0
[14]	0.23
[16]	0
[17]	0
[21]	0
[23]	0
